Where two headings read alike, the source gives them in different places. Marks after values point to notes of the source that are not given here.
Experiments:
[1] = test system: carrageenin edema of right hind limb plantar; experiment: Anti-inflammatory activity, carrageenin edema method; assay type: in vivo, SD-rats; conditions: po, 10 mg/kg orally
Protocol: Anti-Inflammatory Activity
Male SD-rats (6 weeks old, CLEA Japan) were used (1 group, n=6). The Carrageenin edema method was performed according to the method of Winter et. al., (Proc. Soc. Exp. Biol. Med., vol. 111, p. 544-547, 1962). After the volume of right hind limb plantar of the rat was determined, a sample was orally administered (1.0 mL, b.w.), and immediately water was orally administered in an amount of 5 mL/rat. Meanwhile, only the solvent of the sample was orally administered to rats in control. After 1 hour, a solution of 1% carrageenin in saline (0.05 mL) was injected into the right hind limb plantar subcutaneously to induce edema. After 2 and 3 hours later from the injection, volumes of the right hind limb plantar were determined. The repression rate (%) of the sample was calculated by comparing the difference of the volumes of the plantar before the carrageenin shot and 2 and 3 hours after the shot between the sample groups and the control groups.

yeast-induced pyrexia = experiment: Antipyretic activity in yeast-induced pyrexia; assay type: in vivo, SD rats; conditions: 10 mg/kg orally; maximum difference in body temperature vs control over 6 hours
Protocol: Antipyretic Activity in Yeast-Induced Pyrexia Antipyretic activity was determined using male SD origin male-rats (7 weeks old, CLEA Japan, 1 group: n=6), according to the method of winter et. al. (J. Pharmacol. Exp. Ther., vol. 138, p. 405, 1963). Before 16 hours from measurement of body temperature, a suspension of 15% yeast in saline was injected subcutaneously (10 mL/kg, b.w.) into the rats to induce fever, and simultaneously supply of food was terminated while water was made available all the time. Each of the rats was raised separately. After 16 hours from the yeast shot, a thermistor terminal was inserted at an about 4 cm depth into rectum every hour, and the body temperatures after 30 seconds were recorded. After 18 hours, rats developing fevers consistently were selected, and a sample was orally administered to the rats (5 mL/kg, b.w.), while to the control, only the solvent was administered. After the administration, body temperatures were measured every hour for a period of 6 hours, and the maximum difference in body temperature between the rats in the sample group and in the control group were determined as Δ (° C.).

[2] = test system: acetic acid induced rising and stretching; experiment: Analgesic activity, acetic acid rising method; assay type: in vivo, ICR-mice; conditions: po, 20 min; 10 mg/kg orally, 30 minutes before 0.6% acetic acid i.p.; number of rising and stretching in 20 minutes; read-out: Repression rate (%) Dosage 10 mg/kg
Protocol: Analgesic Activity Acetic Acid Rising Method Male ICR-mice (5 weeks old, CLEA Japan) were used (1 group, n=10), and a sample was orally administered (0.2 mL/10 g, b.w.). After 30 minutes, 0.6% acetic acid solution was injected to mice intraperitoneally (0.1 mL/10 g, b.w.), and the mice were immediately transferred into an observation cage made of a transparent acrylic resin. The number of rising and stretching during the following period of 20 minutes was counted. The repression rate (%) was calculated by comparing the average numbers between the sample groups and the control groups.

human COX-2 = target: T1, human COX-2 (Homo sapiens, UniProt P35354); experiment: Determination of COX-2 inhibitory activity (microsome fraction, chemiluminescence); assay type: biochemical; conditions: microsome fraction 20 μg, arachidonic acid, 37° C. 25 minutes preincubation; read-out: Repression rate IC50 (μM) COX-2
T1 construct: made in house; host or cells: Sf-21 insect cells (recombinant baculovirus BAC-COX2, pFASTBAC1); microsome fraction
T1 sequence (P35354 18-604): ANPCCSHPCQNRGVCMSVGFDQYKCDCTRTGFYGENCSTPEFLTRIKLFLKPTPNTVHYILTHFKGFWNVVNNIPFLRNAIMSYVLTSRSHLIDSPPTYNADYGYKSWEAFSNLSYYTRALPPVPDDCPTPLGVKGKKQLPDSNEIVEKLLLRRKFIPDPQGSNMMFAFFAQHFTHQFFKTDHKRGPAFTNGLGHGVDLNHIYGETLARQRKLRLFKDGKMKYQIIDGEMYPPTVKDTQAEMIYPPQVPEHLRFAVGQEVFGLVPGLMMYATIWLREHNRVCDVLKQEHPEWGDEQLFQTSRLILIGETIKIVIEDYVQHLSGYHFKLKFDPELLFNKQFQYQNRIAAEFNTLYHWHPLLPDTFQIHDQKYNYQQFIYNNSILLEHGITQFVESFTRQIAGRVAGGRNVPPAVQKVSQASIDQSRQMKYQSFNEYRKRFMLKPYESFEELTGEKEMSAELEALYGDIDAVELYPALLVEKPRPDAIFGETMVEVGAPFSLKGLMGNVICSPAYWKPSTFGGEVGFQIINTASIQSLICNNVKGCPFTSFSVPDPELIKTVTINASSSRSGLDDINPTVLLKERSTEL
Protocol: A 1.8 kb DNA fragment containing human COX-2 cDNA (Proc. Natl. Acad. Sci. U.S.A., vol. 89 (16), p. 7384-7388 (1992)) prepared by the PCR method was inserted into plasmid pFASTBAC1 (CIBCOBRAL) to obtain a plasmid pFBCOX2.
Using the plasmid pFBCOX2 and BAC-TO-BAC Baculovirus Expression System (GIBCOBRAL), a virus stock BAC-COX2 of the recombinant baculovirus was prepared.
Sf-21 cells were inoculated in 125 mL of LSf-900 II SFM medium (GIBCOBRAL) at a concentration of 1×10^6 cells/mL, and the medium was incubated at 27° C. for 24 hours. 0.75 mL of the virus stock BAC-COX2 of the recombinant baculovirus was added thereto, and was incubated further for 72 hours. The cells were separated from the medium by centrifugation (3000 rpm, 10 min), and washed with PBS twice. The cells were suspended in 10 mL of a Lysis buffer (0.1M Tris-HCl (pH 7.4), 5 mM EDTA), and were treated with a homogenizer (POLYTRON), three times at 20000 rpm for 20 seconds so that the cells were crushed. The supernatant thus obtained after centrifugation (2000 rpm, 10 minutes) was further centrifuged (40000 rpm, 45 minutes) to obtain a precipitate, which was resuspended in a Lysis buffer (0.1M Tris-HCl (pH 7.4), 5 mM EDTA), and the suspension was stored at −80° C.
(§1) Determination of COX-1 and COX-2 Inhibitory Activities
(§2) To a mixture of 20 μL of a reaction buffer previously concentrated 10 times (1M Tris-HCl (pH8.0), 50 mM EDTA, 1.0% Tween 20, 50 mM luminol, 100 μM hematin), 20 μL of the microsome fractions (COX-1: 40 μg, COX-2: 20 μg), and 55 μL of distilled water, a sample compound dissolved in DMF (5 μL) was added, and the mixture was left at 37° C. for 25 minutes. The reaction was started by the addition of 20 μM arachidonic acid (100 μL), and chemiluminescence amount during the 10-second period after the addition of arachidonic acid was determined by the use of Lumistar (BMG Lab technologies, GmbH). The inhibition rate was calculated, regarding that the enzyme activity when DMF ([…]) was added was 100%, and the enzyme activity when 4 mM flurbiprofen (5 μL) was added was 0%.

human COX-1 = target: T2, human COX-1 (Homo sapiens, UniProt P23219); experiment: Determination of COX-1 inhibitory activity (microsome fraction, chemiluminescence); assay type: biochemical; conditions: microsome fraction 40 μg, arachidonic acid, 37° C. 25 minutes preincubation; read-out: Repression rate IC50 (μM) COX-1
T2 construct: made in house; host or cells: Sf-21 insect cells (recombinant baculovirus BAC-COX1, pFASTBAC1); microsome fraction
Protocol: A 1.8 kb DNA fragment containing human COX-1 cDNA (FASEB J., vol. 5 (9), p. 2304-2312 (1991)) prepared by the PCR method was inserted into plasmid pFASTBAC1 (CIBCOBRL) to obtain a plasmid pFBCOX1.
Using the plasmid pFBCOX1 and BAC-TO-BAC Baculovirus Expression System (GIBCOBRL), a virus stock BAC-COX1 of the recombinant baculovirus was prepared.
Sf-21 cells were inoculated in 125 mL of Sf-900 II SFM medium (GIBCOBRL) at a concentration of 1×10^6 cells/mL, and the medium was incubated at 27° C. for 24 hours. 0.75 mL of the virus stock BAC-COX1 of the recombinant baculovirus was added thereto, and the mixture was incubated further for 72 hours. The cells were separated from the medium by centrifugation (3000 rpm, 10 min), and washed with PBS twice. The cells were suspended in 10 mL of a Lysis buffer (0.1M Tris-HCl (pH 7.4), 5 mM EDTA), and were treated with a homogenizer (POLYTRON) three times at 20000 rpm for 20 seconds so that the cells were crushed. The supernatant obtained after centrifugation (2000 rpm, 10 minutes) was further centrifuged (40000 rpm, 45 minutes) to give a precipitate, which was resuspended in a Lysis buffer (0.1M Tris-HCl (pH 7.4), 5 mM EDTA), and the suspension was stored at −80° C.
as §1, §2

[3] = test system: mucosa of small intestine; experiment: Disorder of mucosa of small intestine; assay type: in vivo, SD rats; conditions: 100 mg/kg orally, freely fed rats, 6 hours after dosing
Protocol: Disorder of Mucosa of Small Intestine Male SD origin male-rats (7 weeks old, CLEA Japan) were used. To the rats freely fed, samples were administered orally (5 mL/kg, b.w.). After 5.5 hours from the administration, Evan's Blue (0.5% Evan's Blue/saline) was injected (1 mL/rat) intravenously under no anesthesia. After 30 minutes from the shot, the intestine was removed by celiotomy and the area thereof facing mesentery was cut open. After removal of intestinal content, the spots in the intestine dyed by Evan's Blue were measured under a stereomicroscope, and the total length (mm) of the spots was determined by a counter and recorded.

adjuvant arthritis = experiment: Anti-adjuvant-arthritic activity; assay type: in vivo, SD rats; conditions: 10 mg/kg orally once a day for 14 days; volume of left hind limb (not injected); day of reading not given
Protocol: Anti-Adjuvant-Arthritic Activity
Male SD origin male-rats (6 weeks old, CLEA Japan, 1 group: n=7) were used. The adjuvant arthritis method was conducted according to the method of Newbould B. B. et. al., (Brit. J. Pharmacol. Chemother., vol. 21, p. 127, 1963). Complete Freund's adjuvant (a suspension of killed tubercule bacillus in liquid paraffin at a concentration of 0.5%, 0.05 mL) was injected into the right hind limb footpad intracutaneouly to induce multiple arthritis. Samples were administered orally (10 mg/kg, b.w.), once a day for 14 days from the day before the injection day 0 to day 13. Volume of the left hind limb (not injected) was determined by the foot-volume measurement apparatus manufactured by Ugo Basile, on the day just before the adjuvant shot (Day 0), Day 10 and Day 14, and repression rate (%) was calculated comparing the values between the sample group and the control group.

[4] = 2 hr after carrageenin injection, read-out: Repression rate (%) Dosage 10 mg/kg 2 hr later
[5] = 3 hr after carrageenin injection, read-out: Repression rate (%) Dosage 10 mg/kg 3 hr later

T2 sequence (P23219 24-599): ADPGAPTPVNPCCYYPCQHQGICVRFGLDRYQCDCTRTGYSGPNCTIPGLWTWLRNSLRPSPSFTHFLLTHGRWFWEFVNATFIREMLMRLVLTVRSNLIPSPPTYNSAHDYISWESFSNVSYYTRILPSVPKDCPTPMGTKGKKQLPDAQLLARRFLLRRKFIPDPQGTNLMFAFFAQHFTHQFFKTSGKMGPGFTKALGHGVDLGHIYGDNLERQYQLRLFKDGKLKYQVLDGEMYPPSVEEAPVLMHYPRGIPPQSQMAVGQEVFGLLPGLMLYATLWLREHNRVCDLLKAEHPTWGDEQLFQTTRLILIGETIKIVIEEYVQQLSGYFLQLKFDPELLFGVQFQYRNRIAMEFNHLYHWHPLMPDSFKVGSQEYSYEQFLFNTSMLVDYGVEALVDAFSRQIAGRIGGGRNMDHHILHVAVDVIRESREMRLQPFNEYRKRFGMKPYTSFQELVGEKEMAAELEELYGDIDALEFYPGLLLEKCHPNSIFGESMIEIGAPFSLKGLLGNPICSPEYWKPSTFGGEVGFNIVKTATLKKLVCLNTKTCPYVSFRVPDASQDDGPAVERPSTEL

O=c1c2cc(Cl)ccc2[nH]c2c1cnn2-c1ccccn1 [Example 2-161, 6-Chloro-1-(2-pyridinyl)-1,9-dihydro-4H-pyrazolo[3,4-b]quinolin-4-one]
inhibition in vivo at 10 mg/kg [1, 4]: 33% | inhibition in vivo at 10 mg/kg [1, 5]: 33% | Δ (° C.) Dosage 10 mg/kg (yeast-induced pyrexia): 1.4** ° C. | melting point: 297 to 298 °C | inhibition in vivo at 10 mg/kg [2]: 74%

COC(=O)c1cccc2[nH]c3c(c(C)nn3-c3ccccn3)c(=O)c12 [Example 2-61, Methyl 3-methyl-4-oxo-1-(2-pyridinyl)-4,9-dihydro-1H-pyrazolo[3,4-b]quinoline-5-carboxylate]
inhibition in vivo at 10 mg/kg [1, 4]: 36% | inhibition in vivo at 10 mg/kg [1, 5]: 28% | IC50 (human COX-2): 44 µM | melting point: 241 to 244 °C | IC50 (human COX-1): 2 µM | inhibition in vivo at 10 mg/kg [2]: 75%

Cc1nn(-c2ccccn2)c2[nH]c3ccc(C(F)(F)F)cc3c(=O)c12 [Example 2-40, 3-Methyl-1-(2-pyridinyl)-6-(trifluoromethyl)-l,9-dihydro-4H-pyrazolo[3,4-b]quinolin-4-one]
Total length of dyed spots (mm) [3]: 0 (100 mg/kg) mm

Cc1nn(-c2ccccn2)c2[nH]c3ccc(F)cc3c(=O)c12 [Example 2-81, 6-Fluoro-3-methyl-1-(2-pyridinyl)-1,9-dihydro-4H-pyrazolo[3,4-b]quinolin-4-one]
melting point: 278 to 280 °C | Repression rate (%) Dosage 10 mg/kg (adjuvant arthritis): 56%

Cc1nn(-c2ccccn2)c2[nH]c3ccccc3c(=O)c12 [Example 2-12, 3-Methyl-1-(2-pyridinyl)-1,9-dihydro-4H-pyrazolo[3,4-b]quinolin-4-one]
Total length of dyed spots (mm) [3]: 0 (100 mg/kg) mm

Cc1nn(-c2ccccn2)c2nc3ccccc3c(OC(C)C)c12 [Example 2-18, 4-Isopropoxy-3-methyl-1-(2-pyridinyl)-1H-pyrazolo[3,4-b]quinoline]
Δ (° C.) Dosage 10 mg/kg (yeast-induced pyrexia): 1.7** ° C. | melting point: 93 to 96 °C | Repression rate (%) Dosage 10 mg/kg (adjuvant arthritis): 47%

Cc1nn(-c2ccccn2)c2[nH]c3cc(F)ccc3c(=O)c12 [Example 2-83, 7-Fluoro-3-methyl-1-(2-pyridinyl)-1,9-dihydro-4H-pyrazolo[3,4-b]quinolin-4-one]
melting point: 260 to 261 °C | Repression rate (%) Dosage 10 mg/kg (adjuvant arthritis): 65* %

— patent US6949648B2, “Condensed pyrazole derivatives, process for producing the same and use thereof” (Takeda Pharmaceutical Company Limited, priority 2000, dated 2005)
